# From patent US12486269B2 (Aconcagua Bio, Inc., priority 2024, dated 2025)
# Experiments:
# [1] = biological target: T1, COS-7/AMY3 (human calcitonin receptor (CTR) and RAMP3) (Homo sapiens, UniProt O60896+P30988); experiment: Amylin Receptor cAMP Assay II; type: cell-based; details: values marked **: Amylin Receptor cAMP Assay II; COS-7/AMY3 cells, cAMP dynamic 2 kit, 30 min; read-out: Amylin Receptor cAMP Stimulation Activity: EC50
# T1 construct: expressed in transfected cells; host or cells: COS-7
# In short: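 Agonist-induced cAMP was quantified by HTRF ratio at 665/615 nm and expressed as % of the window from vehicle to MAX control. Stimulation lasted 30 min at 37 °C in HBSS/20 mM HEPES/0.5 mM IBMX/0.1% casein, using stable human CTR+RAMP3 (AMY3) COS-7 cells at 2000 per well.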
# [2] = biological target: T2, human calcitonin receptor (CTR) (Homo sapiens, UniProt P30988); experiment: Calcitonin Receptor (CTR) cAMP Assay; type: cell-based; details: COS7-human CTR Clone #2 stable cell line, cAMP dynamic 2 kit, 30 min; read-out: Calcitonin Receptor cAMP Stimulation Activity: EC50
# T2 construct: expressed in transfected cells; host or cells: COS-7 (COS7-human CTR Clone #2)
# T2 sequence (P30988 25-474): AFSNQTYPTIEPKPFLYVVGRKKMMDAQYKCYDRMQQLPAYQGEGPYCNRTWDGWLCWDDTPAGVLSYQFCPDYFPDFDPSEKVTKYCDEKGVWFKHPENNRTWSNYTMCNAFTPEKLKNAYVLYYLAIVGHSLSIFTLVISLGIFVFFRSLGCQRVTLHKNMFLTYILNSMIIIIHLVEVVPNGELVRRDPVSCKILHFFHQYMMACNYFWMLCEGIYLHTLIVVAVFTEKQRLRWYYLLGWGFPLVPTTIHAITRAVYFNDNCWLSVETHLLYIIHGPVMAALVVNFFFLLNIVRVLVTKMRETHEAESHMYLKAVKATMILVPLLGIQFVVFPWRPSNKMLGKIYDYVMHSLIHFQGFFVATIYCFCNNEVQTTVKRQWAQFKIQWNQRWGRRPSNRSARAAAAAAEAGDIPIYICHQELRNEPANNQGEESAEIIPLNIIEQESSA
# In short: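 cAMP accumulation was measured by HTRF cAMP dynamic 2 read at 665/615 nm, 1 h at room temperature, with results scaled between vehicle and positive control. Before detection, COS7-human CTR stable cells were stimulated 30 min at 37 °C with compound (4-fold dilutions) in IBMX-containing HBSS/HEPES/casein buffer.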
# T1 sequence (O60896 24-148, one chain of several): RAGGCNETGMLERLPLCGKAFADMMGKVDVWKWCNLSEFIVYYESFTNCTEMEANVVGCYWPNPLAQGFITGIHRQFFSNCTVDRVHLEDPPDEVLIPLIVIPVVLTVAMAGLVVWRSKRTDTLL
Compound,EC50 [1],EC50 [2]
O=C1c2c(nc(CCc3ccc(F)cc3)c(-c3n[nH]c(=O)o3)c2-c2cc3ccnc(N[C@@H]4CCOc5ccccc54)c3s2)[C@@H]2CCCN12 [Compound 170],33.1 nM,1.19 nM
"COc1c(Cl)ccc2c1CC[C@H]2Nc1nccc2cc(-c3c4c(nc(CCc5ccc(F)cc5)c3-c3n[nH]c(=O)o3)[C@@H]3CCCN3C4=O)sc12 [Compound 173, 5—((S)-4-(7-(((R)-5-chloro-4-methoxy-2,3-dihydro-1H-inden-1-yl)amino)thieno[2,3-c]pyridin-2-yl)-2-(4-fluorophenethyl)-5-oxo-7,8,9,9a-tetrahydro-5H-pyrido[2,3-a]pyrrolizin-3-yl)-1,3,4-oxadiazol-2(3H)-one]",16.9 nM,0.788 nM
"COc1cccc2c1CC[C@H]2Nc1nccc2cc(-c3c4c(nc(CCc5ccc(F)cc5)c3-c3n[nH]c(=O)o3)[C@@H]3COCCN3C4=O)sc12 [Compound 174, (R)-2-(4-fluorophenethyl)-4-(7-(((R)-4-methoxy-2,3-dihydro-1H-inden-1-yl)amino)thieno[2,3-c]pyridin-2-yl)-3-(5-oxo-4,5-dihydro-1,3,4-oxadiazol-2-yl)-7,8,10,10a-tetrahydro-5H-pyrido[2′,3′:3,4]pyrrolo[2,1-c][1,4]oxazin-5-one]",31.9 nM,0.347 nM
"COc1cccc2c1CC[C@H]2Nc1nccc2cc(-c3c(-c4n[nH]c(=O)o4)c(CCc4ccc(F)cc4)nc4c3S(=O)(=O)N3CCC[C@@H]43)sc12 [Compound 175, 5-((S)-2-(4-fluorophenethyl)-4-(7-(((R)-4-methoxy-2,3-dihydro-1H-inden-1-yl)amino)thieno[2,3-c]pyridin-2-yl)-5,5-dioxido-7,8,9,9a-tetrahydropyrrolo[1′,2′:2,3]isothiazolo[4,5-b]pyridin-3-yl)-1,3,4-oxadiazol-2(3H)-one]",26.8 nM,0.741 nM
"N#Cc1ccc(Cn2c(=O)oc3cc(-c4c5c(nc(CCc6ccc(F)cc6)c4-c4n[nH]c(=O)o4)[C@@H]4CCCN4C5=O)ccc32)nc1 [Compound 176, 6-[[6-[(9aS)-2-[2-(4-fluorophenyl)ethyl]-5-oxo-3-(2-oxo-3H-1,3,4-oxadiazol-5-yl)-7,8,9,9a-tetrahydropyrido[2,3-a]pyrrolizin-4-yl]-2-oxo-1,3-benzoxazol-3-yl]methyl]pyridine-3-carbonitrile]",10.7 nM,0.557 nM
"COc1cccc2c1CC[C@H]2Nc1nccc2cc(-c3c4c(nc(CCc5ccc(F)cc5)c3-c3n[nH]c(=O)o3)[C@]3(C)COCCN3C4=O)sc12 [Compound 179, (R)-2-(4-fluorophenethyl)-4-(7-(((R)-4-methoxy-2,3-dihydro-1H-inden-1-yl)amino)thieno[2,3-c]pyridin-2-yl)-10a-methyl-3-(5-oxo-4,5-dihydro-1,3,4-oxadiazol-2-yl)-7,8,10,10a-tetrahydro-5H-pyrido[2′,3′:3,4]pyrrolo[2,1-c][1,4]oxazin-5-one]",34.2 nM,1.25 nM
"COc1cccc2c1CC[C@H]2Nc1nccc2cc(-c3c(-c4n[nH]c(=O)o4)c(CCc4ccc(F)cc4)nc4c3C(=O)N3C[C@H]5C[C@@]43C5)sc12 [Compound 181, (R)-5-(2-(4-fluorophenethyl)-4-(7-((4-methoxy-2,3-dihydro-1H-inden-1-yl)amino)thieno[2,3-c]pyridin-2-yl)-5-oxo-8,9-dihydro-5H,7H-8,9a-methanopyrido[2,3-a]pyrrolizin-3-yl)-1,3,4-oxadiazol-2(3H)-one]",3.5 nM,0.105 nM
"COc1cccc2c1CC[C@H]2Nc1nccc2cc(-c3c4c(nc(CCc5ccc(F)cc5)c3-c3n[nH]c(=O)o3)[C@H]3N(CCC3(C)C)C4=O)sc12 [Compound 182, 5-((S)-2-(4-fluorophenethyl)-4-(7-(((R)-4-methoxy-2,3-dihydro-1H-inden-1-yl)amino)thieno[2,3-c]pyridin-2-yl)-9,9-dimethyl-5-oxo-7,8,9,9a-tetrahydro-5H-pyrido[2,3-a]pyrrolizin-3-yl)-1,3,4-oxadiazol-2(3H)-one]",52.9 nM,7.85 nM
"O=C1c2c(nc(CCc3ccc(F)cc3)c(-c3n[nH]c(=O)o3)c2-c2cc3ccnc(N[C@@H]4CCc5cc(F)ccc54)c3s2)[C@@H]2CCCN12 [Compound 184, 5-((S)-4-(7-(((R)-5-fluoro-2,3-dihydro-1H-inden-1-yl)amino)thieno[2,3-c]pyridin-2-yl)-2-(4-fluorophenethyl)-5-oxo-7,8,9,9a-tetrahydro-5H-pyrido[2,3-a]pyrrolizin-3-yl)-1,3,4-oxadiazol-2(3H)-one]",3.59 nM,0.247 nM
"CC1(C)Oc2cc(-c3c4c(nc(CCc5ccc(F)cc5)c3-c3n[nH]c(=O)o3)[C@@H]3CCCN3C4=O)ccc2N(Cc2ccc(F)cn2)C1=O [Compound 186, (S)-7-(2-(4-fluorophenethyl)-5-oxo-3-(5-oxo-4,5-dihydro-1,3,4-oxadiazol-2-yl)-7,8,9,9a-tetrahydro-5H-pyrido[2,3-a]pyrrolizin-4-yl)-4-((5-fluoropyridin-2-yl)methyl)-2,2-dimethyl-2H-benzo[b][1,4]oxazin-3(4H)-one]",37.2 nM,0.682 nM

# Other lines, results leading:
EC50 [1],EC50 [2],Compound
71.4 nM,1.52 nM,"COc1cccc2c1CC[C@H]2Nc1nccc2cc(-c3c4c(nc(CCc5cccc(C(F)(F)F)c5)c3-c3n[nH]c(=O)o3)[C@@H]3CCCN3C4=O)sc12 [Compound 171, 5-((S)-4-(7-(((R)-4-methoxy-2,3-dihydro-1H-inden-1-yl)amino)thieno[2,3-c]pyridin-2-yl)-5-oxo-2-(3-(trifluoromethyl)phenethyl)-7,8,9,9a-tetrahydro-5H-pyrido[2,3-a]pyrrolizin-3-yl)-1,3,4-oxadiazol-2(3H)-one]"
51.1 nM,2.06 nM,"COc1cccc2c1CC[C@H]2Nc1nccc2cc(-c3c4c(nc(CCC5CCCCC5)c3-c3n[nH]c(=O)o3)[C@@H]3CCCN3C4=O)sc12 [Compound 172, 5-((S)-2-(2-cyclohexylethyl)-4-(7-(((R)-4-methoxy-2,3-dihydro-1H-inden-1-yl)amino)thieno[2,3-c]pyridin-2-yl)-5-oxo-7,8,9,9a-tetrahydro-5H-pyrido[2,3-a]pyrrolizin-3-yl)-1,3,4-oxadiazol-2(3H)-one]"
1810 nM,39.4 nM,"O=C1c2c(nc(CCc3ccc(F)cc3)c(-c3n[nH]c(=O)o3)c2-c2cnc3c(ccn3Cc3ccc(F)cn3)c2)[C@@H]2CCCN12 [Compound 177, (S)-5-(2-(4-fluorophenethyl)-4-(1-((5-fluoropyridin-2-yl)methyl)-1H-pyrrolo[2,3-b]pyridin-5-yl)-5-oxo-7,8,9,9a-tetrahydro-5H-pyrido[2,3-a]pyrrolizin-3-yl)-1,3,4-oxadiazol-2(3H)-one]"
203 nM,3.19 nM,"COc1cccc2c1CC[C@H]2Nc1nccc2cc(-c3c4c(nc(CCc5ccc(F)cc5)c3-c3n[nH]c(=O)o3)[C@]3(C)CCCN3C4=O)sc12 [Compound 178, 5-((S)-2-(4-fluorophenethyl)-4-(7-(((R)-4-methoxy-2,3-dihydro-1H-inden-1-yl)amino)thieno[2,3-c]pyridin-2-yl)-9a-methyl-5-oxo-7,8,9,9a-tetrahydro-5H-pyrido[2,3-a]pyrrolizin-3-yl)-1,3,4-oxadiazol-2(3H)-one]"
12.7 nM,0.559 nM,"COc1cccc2c1CC[C@H]2Nc1nccc2cc(-c3c4c(nc(CCc5ccc(F)cc5)c3-c3n[nH]c(=O)o3)C35CC3CCN5C4=O)sc12 (stereo partly drawn) [Compound 180, 5-(8-(4-fluorophenethyl)-6-(7-(((R)-4-methoxy-2,3-dihydro-1H-inden-1-yl)amino)thieno[2,3-c]pyridin-2-yl)-5-oxo-1,1a,2,3-tetrahydro-5H-cyclopropa[g]pyrido[2,3-a]pyrrolizin-7-yl)-1,3,4-oxadiazol-2(3H)-one]"
4.23 nM,0.143 nM,"O=C1c2c(nc(CCc3ccc(F)cc3)c(-c3n[nH]c(=O)o3)c2-c2cc3ccnc(N[C@@H]4CCc5c(F)cc(F)cc54)c3s2)[C@@H]2CCCN12 [Compound 183, 5-((S)-4-(7-(((R)-4,6-difluoro-2,3-dihydro-1H-inden-1-yl)amino)thieno[2,3-c]pyridin-2-yl)-2-(4-fluorophenethyl)-5-oxo-7,8,9,9a-tetrahydro-5H-pyrido[2,3-a]pyrrolizin-3-yl)-1,3,4-oxadiazol-2(3H)-one]"
231 nM,15.2 nM,"COc1cccc2c1CC[C@H]2Nc1nccc2cc(-c3c4c(nc(C(C)C)c3-c3n[nH]c(=O)o3)[C@@H]3CCCN3C4=O)sc12 [Compound 185, 5-((S)-2-isopropyl-4-(7-(((R)-4-methoxy-2,3-dihydro-1H-inden-1-yl)amino)thieno[2,3-c]pyridin-2-yl)-5-oxo-7,8,9,9a-tetrahydro-5H-pyrido[2,3-a]pyrrolizin-3-yl)-1,3,4-oxadiazol-2(3H)-one]"
